Data taken from patent US9220740B2.

Tests used:
ERβ [1] = target: T1, ERβ (Homo sapiens, UniProt Q92731); conditions: in the presence of ERβ
ERβ [2] = target: T1, ERβ; assay: Repression of TNF-α activation of TNF-RE tkLuc in U2OS cells with ERβ; assay type: cell-based; parameters: expressed in transfected cells
TNF-RE tkLuc = assay: Effect of antiestrogens on TNF-RE tkLuc (Example 2); assay type: cell-based, human; conditions: for effect on the repression induced by E2: TNF-RE tkLuc; for activation of TNF-RE tkLuc: antiestrogens
breast cancer = conditions: cited from earlier work
ERβ [3] = target: T1, ERβ; assay: ERE-tk-Luc luciferase activation in U2OS cells cotransfected with human ERβ; assay type: cell-based; parameters: expressed in transfected cells; host or cells: U2OS (human osteosarcoma); conditions: competition with the Astragalus extract

T1 sequence (Q92731 whole entry): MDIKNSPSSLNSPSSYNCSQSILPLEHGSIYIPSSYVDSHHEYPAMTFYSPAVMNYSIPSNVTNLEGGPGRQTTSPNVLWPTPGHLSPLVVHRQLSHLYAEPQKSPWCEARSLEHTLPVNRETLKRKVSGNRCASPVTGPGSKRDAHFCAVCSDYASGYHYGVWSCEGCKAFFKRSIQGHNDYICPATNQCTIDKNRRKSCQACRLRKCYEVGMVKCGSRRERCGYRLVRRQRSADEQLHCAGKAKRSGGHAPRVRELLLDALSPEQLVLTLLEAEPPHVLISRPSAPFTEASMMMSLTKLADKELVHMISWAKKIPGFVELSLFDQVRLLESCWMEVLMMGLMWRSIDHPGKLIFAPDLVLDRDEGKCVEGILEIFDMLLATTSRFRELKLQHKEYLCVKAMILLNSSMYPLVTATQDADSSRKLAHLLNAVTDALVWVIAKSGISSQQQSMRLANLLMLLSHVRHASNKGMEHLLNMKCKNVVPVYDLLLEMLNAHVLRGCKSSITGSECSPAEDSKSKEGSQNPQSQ

Structure (SMILES) | repression of TNF-α activation of TNF-RE tkLuc (ERβ [1]) | repression of TNF-α activation of TNF-RE (ERβ [2]) | effect on the repression induced by E2 (TNF-RE tkLuc) | activation of TNF-RE tkLuc (TNF-RE tkLuc) | reduction of the risk of primary invasive breast cancer (breast cancer; BCPT, women at high risk for breast cancer) | reduction of the risk of recurrences (breast cancer; five years of therapy, women with estrogen receptor-positive breast cancer) | reduction of mortality from breast cancer (breast cancer; five years of therapy) | effect on the extract's stimulatory effect on the ERE with ERβ (FIG. 6) (ERβ [3])
C[C@]12CC[C@@H]3c4ccc(O)cc4CC[C@H]3[C@@H]1CC[C@@H]2O [E2, estradiol] | 60-80% | 100% | – | – | – | – | – | –
CC/C(=C(\c1ccccc1)c1ccc(OCCN(C)C)cc1)c1ccccc1 [tamoxifen] | – | – | abolished | 2 fold | 49% | 42% | 22% | –
C[C@]12CC[C@@H]3c4ccc(O)cc4C[C@@H](CCCCCCCCC[S+]([O-])CCCC(F)(F)C(F)(F)F)[C@H]3[C@@H]1CC[C@@H]2O (stereo partly drawn) [ICI 182, 780] | – | – | abolished | 2 fold | – | – | – | –
O=C(c1ccc(OCCN2CCCCC2)cc1)c1c(-c2ccc(O)cc2)sc2cc(O)ccc12 [raloxifene] | – | – | abolished | 2 fold | – | – | – | inhibited
